Experimental data taken from publication PMC4120060 (Psychoneuroendocrinology, 2014).

Experiments:
[1] = in vivo; cited from earlier work
[2] = in vivo; cited from earlier work; remark: listed apart in the source
[3] = humans; four-fold lower intramuscular dose; ref Landgraf, 1985; cited from earlier work
[4] = Lumbar CSF OT concentration after OT administration; conditions: N=6
[5] = ref Mens et al., 1983; cited from earlier work
[6] = Plasma OT concentration after OT administration; format: in vivo, rhesus monkeys (Macaca mulatta)

Row | Compound | CSF OT concentrations after IN-OT spray versus placebo/saline [1] | passive diffusion of peptide from the plasma to the CSF [2] | plasma OT concentration, intramuscular relative to nasal administration [3] | lumbar CSF OT after IV-OT ([4]; IV 48 IU Syntocinon vs placebo, 0, 60, 120 min) | lumbar CSF OT after IN-OT ([4]; intranasal spray 24 IU Syntocinon vs placebo, 0, 60, 120 min) | half-life of OT in the blood [5] | increase in plasma OT after IV-OT, 15 min ([6]; IV bolus 48 IU Syntocinon, 15 min after administration, N=6, RIA) | increase in plasma OT after IV-OT, 60 min ([6]; IV bolus 48 IU Syntocinon, 60 min after administration, N=6, RIA) | plasma OT above baseline after IV-OT, 120 min ([6]; IV bolus 48 IU Syntocinon, 120 min after administration, N=6, RIA) | plasma OT after IN-OT versus placebo ([6]; intranasal spray 24 IU Syntocinon vs placebo, 60 and 120 min, N=6) | increase in plasma OT over baseline after IN-OT ([6]; intranasal spray 24 IU Syntocinon, 60 and 120 min, N=6, RIA) | CSF concentration of the peptide after nasal delivery [1]
1 | CC[C@H](C)[C@@H]1NC(=O)[C@H](Cc2ccc(O)cc2)NC(=O)[C@@H](N)CSSC[C@@H](C(=O)N2CCC[C@H]2C(=O)N[C@@H](CC(C)C)C(=O)NCC(N)=O)NC(=O)[C@H](CC(N)=O)NC(=O)[C@H](CCC(N)=O)NC1=O [OT, oxytocin] | higher | ~ 1% | 10 fold | no impact on lumbar CSF concentrations | No significant effect | approximately 2 minutes | thousand fold increase | hundred fold increase | 100 times | significantly increased plasma levels of OT | 100 fold | –
2 | α-melanocyte stimulating hormone | – | – | – | – | – | – | – | – | – | – | – | increased concentrations in cerebrospinal fluid (CSF) over baseline levels
